Data as given in the supplement of paper PMC10307832.

Key:
Assay in all cases: relative viability (nuclei count vs DMSO), 5 days (fraction); higher = more cells survive
[1] = compound: COc1cc2/c(=N/c3ccc(Br)cc3F)nc[nH]c2cc1OCC1CCN(C)CC1 [Vandetanib] + Cc1nc(NC(=O)N2CCC[C@H]2C(N)=O)sc1-c1ccnc(C(C)(C)C(F)(F)F)c1 [Alpelisib] (partner 2 µM)
Summary of the method: (§1)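 A single step with final 0.05% Triton X-100, 1% formaldehyde and 1 ug/ml Hoechst fixed the cells and stained nuclei 5 days after treatment. Lung cancer cell lines in 1536-well plates had been treated by pin tool the day after seeding with one drug alone or a fixed anchor-drug dose plus five library-drug doses (not always all listed) in √10 steps, and nuclei were counted on 4× images. Relative viability is the ratio of nuclei in treated wells to nuclei in vehicle wells, taken as the median of duplicate plates.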

[2] = compound: COc1cc(N2CCC(N3CCN(C)CC3)CC2)ccc1Nc1ncc(Cl)c(Nc2ccccc2S(=O)(=O)C(C)C)n1 [NVP-TAE684] + Cc1nc(Nc2ncc(C(=O)Nc3c(C)cccc3Cl)s2)cc(N2CCN(CCO)CC2)n1 [Dasatinib] (partner 0.075 µM)
Summary of the method: as §1

[3] = compound: C#Cc1cccc(Nc2ncnc3cc(OC)c(OCCCCCCC(=O)NO)cc23)c1 [CUDC-101] + CC(=O)Nc1cccc(-n2c(=O)n(C3CC3)c(=O)c3c(Nc4ccc(I)cc4F)n(C)c(=O)c(C)c32)c1 [Trametinib] (partner 0.02 µM)
Summary of the method: as §1

[4] = compound: COc1cc(N2CCC(N3CCN(C)CC3)CC2)ccc1Nc1ncc(Cl)c(Nc2ccccc2S(=O)(=O)C(C)C)n1 [NVP-TAE684] + N=C(N)NC(=N)NCCc1ccccc1 [Phenformin] (partner 250 µM)
Summary of the method: as §1

UMC-11
relative viability ([1]; first compound 0.02 µM): 0.897
relative viability ([1]; first compound 0.06325 µM): 0.975
relative viability ([1]; first compound 0.2 µM): 0.905
relative viability ([1]; first compound 0.6325 µM): 0.908
relative viability ([1]; first compound 2 µM): 0.922
relative viability ([2]; first compound 0.2 µM): 0.577
relative viability ([2]; first compound 0.6325 µM): 0.415
relative viability ([2]; first compound 2 µM): 0.284
relative viability ([3]; first compound 0.01 µM): 0.727
relative viability ([3]; first compound 0.03162 µM): 0.761
relative viability ([3]; first compound 0.1 µM): 0.578
relative viability ([3]; first compound 0.3162 µM): 0.399
relative viability ([3]; first compound 1 µM): 0.127
relative viability ([4]; first compound 0.2 µM): 0.355
relative viability ([4]; first compound 0.6325 µM): 0.32
relative viability ([4]; first compound 2 µM): 0.268
